Laboratory results reported in article PMC5540273, “Progress towards a public chemogenomic set for protein kinases and a call for contributions” (PLoS ONE, 2017).

Columns and labels:
Assay in all cases: KINOMEscan competition binding
ICK = molecular target: T1, ICK (Homo sapiens, UniProt Q9UPZ9); settings: read-out: %Inh ICK
T1 sequence (Q9UPZ9 1-632): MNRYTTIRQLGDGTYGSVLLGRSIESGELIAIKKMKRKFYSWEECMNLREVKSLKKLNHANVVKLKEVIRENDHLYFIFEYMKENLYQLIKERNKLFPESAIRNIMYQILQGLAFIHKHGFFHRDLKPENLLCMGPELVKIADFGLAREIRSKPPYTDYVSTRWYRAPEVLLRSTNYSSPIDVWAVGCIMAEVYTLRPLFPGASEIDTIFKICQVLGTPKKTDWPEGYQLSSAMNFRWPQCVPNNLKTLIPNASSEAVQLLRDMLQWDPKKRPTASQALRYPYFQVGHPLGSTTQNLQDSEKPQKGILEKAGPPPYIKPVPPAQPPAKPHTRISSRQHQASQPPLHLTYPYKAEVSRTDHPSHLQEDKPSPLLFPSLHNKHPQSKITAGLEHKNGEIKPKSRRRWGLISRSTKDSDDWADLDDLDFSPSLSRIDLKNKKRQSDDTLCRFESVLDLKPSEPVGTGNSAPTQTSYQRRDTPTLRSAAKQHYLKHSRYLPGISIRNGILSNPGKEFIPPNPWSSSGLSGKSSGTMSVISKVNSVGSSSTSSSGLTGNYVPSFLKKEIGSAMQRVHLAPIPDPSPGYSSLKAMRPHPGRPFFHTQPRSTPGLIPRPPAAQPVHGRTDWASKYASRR

GSK3A = GSK3A (Homo sapiens, UniProt P49840); settings: read-out: %Inh GSK3A
IKK-beta = molecular target: T2, IKK-beta (Homo sapiens, UniProt O14920); settings: read-out: %Inh IKK-beta
T2 sequence (O14920 1-756): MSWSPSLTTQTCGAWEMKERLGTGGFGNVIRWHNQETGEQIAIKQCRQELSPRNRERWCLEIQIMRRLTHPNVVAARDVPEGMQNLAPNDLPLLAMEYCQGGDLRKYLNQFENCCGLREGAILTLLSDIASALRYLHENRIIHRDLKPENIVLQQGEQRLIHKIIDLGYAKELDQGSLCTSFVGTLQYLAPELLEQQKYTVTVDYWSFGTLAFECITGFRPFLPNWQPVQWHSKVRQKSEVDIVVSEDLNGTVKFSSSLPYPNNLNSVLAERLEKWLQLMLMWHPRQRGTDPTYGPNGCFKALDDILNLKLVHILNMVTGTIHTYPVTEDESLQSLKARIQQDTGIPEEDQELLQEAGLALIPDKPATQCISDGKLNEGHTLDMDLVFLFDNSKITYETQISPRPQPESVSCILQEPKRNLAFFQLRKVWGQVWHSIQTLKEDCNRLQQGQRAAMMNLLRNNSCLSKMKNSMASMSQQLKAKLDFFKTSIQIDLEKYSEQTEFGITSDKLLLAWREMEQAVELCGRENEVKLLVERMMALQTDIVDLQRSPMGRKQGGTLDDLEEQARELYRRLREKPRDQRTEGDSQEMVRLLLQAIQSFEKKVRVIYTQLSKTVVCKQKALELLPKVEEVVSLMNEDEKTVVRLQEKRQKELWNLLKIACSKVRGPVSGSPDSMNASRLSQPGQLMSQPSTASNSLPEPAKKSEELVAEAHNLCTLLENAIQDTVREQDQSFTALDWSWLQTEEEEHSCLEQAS

FES = FES (Homo sapiens, UniProt P07332); settings: read-out: %Inh FES
ASK1 = molecular target: T3, ASK1 (Homo sapiens, UniProt Q99683); settings: read-out: %Inh ASK1
T3 sequence (Q99683 1-1374): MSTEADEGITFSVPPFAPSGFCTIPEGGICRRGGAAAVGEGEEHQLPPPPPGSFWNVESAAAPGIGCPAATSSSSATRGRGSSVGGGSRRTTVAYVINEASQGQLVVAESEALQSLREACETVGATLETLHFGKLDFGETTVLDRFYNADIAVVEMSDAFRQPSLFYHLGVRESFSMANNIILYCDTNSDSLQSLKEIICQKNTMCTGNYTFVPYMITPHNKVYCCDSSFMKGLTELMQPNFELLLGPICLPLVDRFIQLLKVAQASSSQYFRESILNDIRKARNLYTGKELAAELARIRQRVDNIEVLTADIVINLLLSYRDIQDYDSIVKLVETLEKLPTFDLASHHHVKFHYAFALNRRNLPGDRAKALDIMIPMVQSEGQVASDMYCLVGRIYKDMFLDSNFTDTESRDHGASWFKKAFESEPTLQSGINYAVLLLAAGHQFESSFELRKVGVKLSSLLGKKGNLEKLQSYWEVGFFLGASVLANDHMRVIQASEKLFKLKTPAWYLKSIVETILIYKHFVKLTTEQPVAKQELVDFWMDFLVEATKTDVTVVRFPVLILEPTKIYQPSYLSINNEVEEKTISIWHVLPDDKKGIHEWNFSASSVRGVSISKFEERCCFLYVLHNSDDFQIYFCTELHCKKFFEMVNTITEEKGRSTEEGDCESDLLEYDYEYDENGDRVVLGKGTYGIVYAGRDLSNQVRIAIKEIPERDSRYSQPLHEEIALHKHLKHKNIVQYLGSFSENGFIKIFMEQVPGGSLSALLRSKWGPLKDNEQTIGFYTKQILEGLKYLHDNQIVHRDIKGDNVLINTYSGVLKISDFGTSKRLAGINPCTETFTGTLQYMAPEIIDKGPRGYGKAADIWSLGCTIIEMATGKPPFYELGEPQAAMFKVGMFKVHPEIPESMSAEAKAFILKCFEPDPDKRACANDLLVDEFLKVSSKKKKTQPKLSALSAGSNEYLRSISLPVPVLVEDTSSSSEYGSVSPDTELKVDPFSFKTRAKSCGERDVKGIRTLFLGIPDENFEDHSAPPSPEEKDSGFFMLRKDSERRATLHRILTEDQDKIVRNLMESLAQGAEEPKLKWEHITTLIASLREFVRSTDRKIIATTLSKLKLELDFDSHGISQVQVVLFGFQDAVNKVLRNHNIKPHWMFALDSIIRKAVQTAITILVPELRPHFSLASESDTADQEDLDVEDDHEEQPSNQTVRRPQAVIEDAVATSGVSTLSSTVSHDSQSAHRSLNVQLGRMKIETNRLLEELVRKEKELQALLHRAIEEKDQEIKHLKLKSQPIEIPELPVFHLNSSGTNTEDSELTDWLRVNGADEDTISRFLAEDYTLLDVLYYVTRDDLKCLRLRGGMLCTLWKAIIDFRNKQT

CDKL1 = CDKL1 (Homo sapiens, UniProt Q00532); settings: read-out: %Inh CDKL1
Sequence of CDKL1 (Q00532 whole entry): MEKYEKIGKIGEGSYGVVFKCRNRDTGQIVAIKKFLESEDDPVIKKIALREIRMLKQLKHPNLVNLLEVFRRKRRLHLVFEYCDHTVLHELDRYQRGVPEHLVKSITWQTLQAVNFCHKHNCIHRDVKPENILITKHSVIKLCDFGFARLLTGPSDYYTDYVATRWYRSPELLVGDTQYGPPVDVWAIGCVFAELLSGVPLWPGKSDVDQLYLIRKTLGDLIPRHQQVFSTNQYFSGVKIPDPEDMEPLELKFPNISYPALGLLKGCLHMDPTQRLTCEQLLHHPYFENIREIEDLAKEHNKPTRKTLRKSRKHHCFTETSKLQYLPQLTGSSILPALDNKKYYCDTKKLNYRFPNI

Sequence of FES (P07332 whole entry): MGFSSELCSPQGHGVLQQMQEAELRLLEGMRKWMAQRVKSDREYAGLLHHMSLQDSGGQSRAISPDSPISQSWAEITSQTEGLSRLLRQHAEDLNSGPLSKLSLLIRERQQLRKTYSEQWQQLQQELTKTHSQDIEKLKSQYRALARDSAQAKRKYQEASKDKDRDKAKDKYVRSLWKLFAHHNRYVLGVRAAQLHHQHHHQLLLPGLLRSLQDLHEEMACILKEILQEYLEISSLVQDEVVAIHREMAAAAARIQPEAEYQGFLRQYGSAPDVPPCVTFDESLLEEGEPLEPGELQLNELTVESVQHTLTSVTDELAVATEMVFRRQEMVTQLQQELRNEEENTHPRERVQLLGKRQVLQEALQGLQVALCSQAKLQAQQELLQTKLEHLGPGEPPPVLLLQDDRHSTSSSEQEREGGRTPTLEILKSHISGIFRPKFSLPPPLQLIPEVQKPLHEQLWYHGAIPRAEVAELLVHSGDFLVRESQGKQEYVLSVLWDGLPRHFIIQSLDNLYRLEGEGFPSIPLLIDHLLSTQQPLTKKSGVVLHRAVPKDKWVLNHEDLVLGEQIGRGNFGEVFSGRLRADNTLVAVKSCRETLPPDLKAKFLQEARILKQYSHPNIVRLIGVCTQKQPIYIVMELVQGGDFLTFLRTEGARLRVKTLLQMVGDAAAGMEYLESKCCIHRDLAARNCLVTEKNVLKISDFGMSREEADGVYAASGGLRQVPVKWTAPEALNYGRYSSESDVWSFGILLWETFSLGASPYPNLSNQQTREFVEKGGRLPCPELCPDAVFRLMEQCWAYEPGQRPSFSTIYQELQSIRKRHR
Sequence of GSK3A (P49840 whole entry): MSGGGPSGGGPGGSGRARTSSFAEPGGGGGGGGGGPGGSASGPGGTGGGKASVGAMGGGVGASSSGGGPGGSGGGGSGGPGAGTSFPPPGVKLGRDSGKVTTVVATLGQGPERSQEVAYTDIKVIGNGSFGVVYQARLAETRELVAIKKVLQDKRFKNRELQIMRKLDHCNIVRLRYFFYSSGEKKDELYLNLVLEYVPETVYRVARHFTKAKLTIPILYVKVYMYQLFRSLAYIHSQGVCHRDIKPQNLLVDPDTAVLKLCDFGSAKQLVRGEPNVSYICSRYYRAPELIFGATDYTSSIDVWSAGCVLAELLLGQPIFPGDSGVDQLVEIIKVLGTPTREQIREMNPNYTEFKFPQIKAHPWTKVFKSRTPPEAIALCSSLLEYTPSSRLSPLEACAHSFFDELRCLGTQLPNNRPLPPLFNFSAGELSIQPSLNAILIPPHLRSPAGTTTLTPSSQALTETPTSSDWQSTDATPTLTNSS

Structure (SMILES): COc1cccc(OC)c1C(=O)Nc1cccc(-c2nn3ccccc3c2-c2ccnc(Nc3cccc(F)c3)n2)c1 [UNC10225310A]
- inhibition at 1 µM (ICK): 0%
- inhibition at 1 µM (GSK3A): 24%
- inhibition at 1 µM (IKK-beta): 0%
- inhibition at 1 µM (FES): 20%
- inhibition at 1 µM (ASK1): 22%
- inhibition at 1 µM (CDKL1): 15%

Structure (SMILES): Cc1ccc(NC(=O)Nc2cccc(C(F)(F)F)c2)cc1 [UNC10225187A]
- inhibition at 1 µM (ICK): 0%
- inhibition at 1 µM (GSK3A): 0%
- inhibition at 1 µM (IKK-beta): 0%
- inhibition at 1 µM (FES): 0%
- inhibition at 1 µM (ASK1): 20%
- inhibition at 1 µM (CDKL1): 14%

Structure (SMILES): O=c1cc(N2CCOCC2)nc2n(Cc3cccc(Cl)c3Cl)c(C3CC3)nn12 [UNC10225469A]
- inhibition at 1 µM (ICK): 4%
- inhibition at 1 µM (GSK3A): 4%
- inhibition at 1 µM (IKK-beta): 0%
- inhibition at 1 µM (FES): 15%
- inhibition at 1 µM (ASK1): 0%
- inhibition at 1 µM (CDKL1): 20%

Structure (SMILES): CS(=O)(=O)Cc1ccc(Nc2nccc(-c3c(-c4cccc(NC(=O)C5CCCCC5)c4)nn4ncccc34)n2)cc1 [UNC10225159A]
- inhibition at 1 µM (ICK): 14%
- inhibition at 1 µM (GSK3A): 0%
- inhibition at 1 µM (IKK-beta): 12%
- inhibition at 1 µM (FES): 0%
- inhibition at 1 µM (ASK1): 0%
- inhibition at 1 µM (CDKL1): 0%

Structure (SMILES): Cn1cc(-c2cnc(N)c3c(-c4ccc5c(c4)CCN5C(=O)Cc4ccccc4)csc23)cn1 [UNC10225012A]
- inhibition at 1 µM (ICK): 100%
- inhibition at 1 µM (GSK3A): 5%
- inhibition at 1 µM (IKK-beta): 0%
- inhibition at 1 µM (FES): 14%
- inhibition at 1 µM (ASK1): 21%
- inhibition at 1 µM (CDKL1): 9%
